What was measured:
Aβ40 and Aβ42 = Aβ40 and Aβ42 sandwich ELISA of TBS-soluble and TBS-insoluble brain fractions; assay type: in vivo, mouse; conditions: Am80 alone 3 mg/kg/d or 6 mg/kg/d for 17 days, oral
Method: APP23 mice begin forming amyloid deposits when they are 6 months old, but memory deficits in the MWM test appear quite early (before 3 months of age). Here, we used 8.5-month-old male APP23 mice and their WT littermates (C57BL/6J). We used stratified random sampling to divide mice (four to six per cage) into four groups to equalize the mean body weight of the study groups: mice given 0.5 mg/kg/d Am80, those given 5 mg/kg/d HX630, those given the mixture of 0.5 mg/kg/d Am80 and 5 mg/kg/d HX630, and those given the vehicle. […]
The TBS-soluble (TBS-extractable) fraction and the TBS-insoluble (but guanidine HC1-extractable) fraction from the cerebral hemispheres or hippocampus were prepared as described previously. The amounts of Aβ40 and Aβ42 in each fraction were determined by using sandwich ELISAs (294-64701 and 290-62601 (Wako), respectively), according to the manufacturer's instructions. The amounts of tumor necrosis factor-α (TNF-α) and IL-4 in the TBS-soluble fractions of cerebral cortex and hippocampus were analyzed by means of sandwich ELISAs KMC3012 (Invitrogen) and ELM-IL-4-001 (RayBiotech, Inc., Norcros, Ga., USA), respectively, according to the manufacturer's instructions. Protein concentrations were determined with the Bradford Protein Assay Reagent (Thermo Fisher Scientific Inc., Rockford, Ill., USA), with BSA as the standard.

RARγ = RARγ (Homo sapiens, UniProt P13631); conditions: [50]; cited from earlier work
APP23 mice = conditions: earlier study [15]; oral Am80 0.5 mg/kg/d for 14 weeks; 5-month-old APP23 mice; cited from earlier work
CD36 = assay: Immunoblot of CD36 in rat primary microglia; assay type: cell-based; conditions: 5 μM each, 48 h; relative to vehicle-treated cells
Description: Primary microglia (type 1) were harvested from primary mixed glial cell cultures prepared from neonatal Wistar rat pups, as previously reported. Mouse microglial cell line MG5 and mouse glial cell line A1 were maintained as previously described. Mouse neuroblastoma cell line N1E-115 and Neuro 2a (American Type Culture Collection, Manassas, Va., USA) were maintained in Dulbecco's modified Eagle's medium (DMEM) supplemented with 10% fetal bovine serum (FBS), 20 U/ml penicillin (Invitrogen, Gaithersburg, Md., USA), and 20 μg/ml streptomycin (Invitrogen). Primary rat microglia were treated with Am80 (5 μM) and/or HX630 (5 μM) in the presence and absence of GW9662 (10 μM) for 48 h in Eagle's MEM supplemented with 10% FBS and 0.2% glucose. MG5 cells and A1 cells were treated with Am80 (5 μM) and/or HX630 (5 μM) for 48 h in DMEM containing 10% FBS. […]
Rat primary microglia and mouse microglial MG5 cells (5×10^6 cells per 100-mm dish) were homogenized in RIPA buffer [10 mM Hepes-NaOH (pH 7.4) containing 150 mM NaCl, 1 mM EDTA, 1% Triton X-100, 0.5% sodium deoxycholate, 0.1% SDS, 1 mM PMSF, 1 mg/ml leupeptin. […] Bound horseradish peroxidase-labeled antibodies were then detected via chemiluminescence (an ECL kit; Pierce, Rockford, Ill., USA). Protein concentrations were determined with the BCA Protein Assay Reagent (Pierce) and Bradford Protein Assay Reagent (Pierce).

Sequence of RARγ (P13631 whole entry, species assumed): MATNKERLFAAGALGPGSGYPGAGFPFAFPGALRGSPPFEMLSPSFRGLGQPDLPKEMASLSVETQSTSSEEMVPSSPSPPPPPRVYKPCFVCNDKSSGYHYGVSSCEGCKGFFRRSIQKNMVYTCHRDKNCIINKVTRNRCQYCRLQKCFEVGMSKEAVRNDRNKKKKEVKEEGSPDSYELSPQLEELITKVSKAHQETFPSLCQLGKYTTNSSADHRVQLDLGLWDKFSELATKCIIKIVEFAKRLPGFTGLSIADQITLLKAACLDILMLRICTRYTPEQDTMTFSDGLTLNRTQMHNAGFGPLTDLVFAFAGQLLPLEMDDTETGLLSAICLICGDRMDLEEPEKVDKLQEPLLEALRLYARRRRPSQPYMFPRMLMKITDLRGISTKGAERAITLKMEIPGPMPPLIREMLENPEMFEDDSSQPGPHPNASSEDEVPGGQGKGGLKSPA

CC1(C)CCC(C)(C)c2cc(NC(=O)c3ccc(C(=O)O)cc3)ccc21 [Am80, 4-{(5,6,7,8-tetrahydro-5,5,8,8-tetramethyl-2-naphthalenyl)carbamoyl}benzoic acid]
Aβ levels in APP23 mice, higher dose (Aβ40 and Aβ42): neither reduced Aβ levels
binding to RARγ (RARγ): hardly binds
behavioral benefits (APP23 mice): did not detect behavioral benefits

CN1c2ccccc2N=C(c2ccc(C(=O)O)cc2)c2cc3c(cc21)C(C)(C)CCC3(C)C [HX630, 4-[5H-2,3-(2,5dimethyl-2,5-hexano)-5-methyldibenzo[b,e]-diazepin-11-yl]benzoic acid]
CD36 expression in rat primary microglia (CD36): 1.3 fold

— patent publication US9861640B2, “Medicament for treatment of Alzheimer's disease” (KEMPHYS LTD., priority 2013, dated 2018)
